Results: patent publication US11077108B2, “Allosteric corticotropin-releasing factor receptor 1 (CRFR1) antagonists that decrease p-tau and improve cognition” (The Regents of the University of California, priority 2016, dated 2021)
Where “and” joins values, the source holds several entries; their conditions need not be identical. Identical values can stand only once. Values belong to the compound of their own block, whether it stands above or below them.

Legend:
[1] = Parallel Artificial Membrane Permeability Assay (PAMPA), kIAM on IAM.PC.DD.2 HPLC column; format: in vitro ADME; conditions: kIAM >1 indicative of good brain permeability
Method: Receptor Binding, Inhibition, and Parallel Artificial Membrane Permeability Assay (PAMPA).
Agilent 1260 infinity high-performance liquid chromatography system was used for analysis. The analytical column used was an IAM.PC.DD.2 column (4.6 mm i.d.×10 cm length, particle size […], pore size 300 Å) purchased from Regis Technologies (Morton Grove, Ill.). The mobile phase was a mixture of acetonitrile and water (35:65 v/v). The flow rate of the mobile phase was maintained at 1.0 ml/min at 25° C., and the ultraviolet absorption wavelength was set at 254 nm. Analysis was performed using 5 μL injection of the 2 mM stock solutions of the compounds. Compounds with kIAM values >1 in the PAMPA assay in our hands are indicative of good brain permeability.

CRFR1 [2] = target: T1, CRFR1 (Homo sapiens, UniProt P34998); assay: Radioligand-receptor binding assay (agonist radioligand), CRF1 Kd; design: expressed in transfected cells; host or cells: HEK293 (permanently transfected), membranes; conditions: [125I]Tyr-sauvagine agonist radioligand
T1 sequence (P34998 24-415): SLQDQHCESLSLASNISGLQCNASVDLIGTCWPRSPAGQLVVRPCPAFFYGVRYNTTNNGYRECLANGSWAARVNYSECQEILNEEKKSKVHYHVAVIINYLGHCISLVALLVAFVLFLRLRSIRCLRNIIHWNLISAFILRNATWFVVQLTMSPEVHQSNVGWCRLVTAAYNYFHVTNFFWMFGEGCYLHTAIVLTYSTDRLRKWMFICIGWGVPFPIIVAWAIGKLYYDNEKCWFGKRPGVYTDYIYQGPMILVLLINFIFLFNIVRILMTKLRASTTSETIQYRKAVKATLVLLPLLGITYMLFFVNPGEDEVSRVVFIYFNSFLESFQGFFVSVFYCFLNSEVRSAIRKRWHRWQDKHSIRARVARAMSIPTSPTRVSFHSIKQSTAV
Method: Radioligand-Receptor Binding Assays (Agonist Radioligand).
Isolation of membranes from permanently transfected HEK293 cells expressing tCRFR1 or hCRFR1 and Scatchard analysis were performed with 50-100 ng protein as described (3) except that 50 pM [^125I]Tyr-sauvagine (NEN) was used as radioligand. [^125I]Tyr-Sauvagine was chosen as radioligand because of its equal high affinity for both CRF-R1 and CRF-R2. Nonspecific binding was always defined as residual [^125I]Tyr-sauvagine binding in the presence of 1 μM unlabeled ligand. The dissociation constant, KD, was calculated by the Ligand program (Munson et al. (1980) Anal. Biochem. 107: 220).

CRFR1 [3] = target: T1, CRFR1; assay: CRF1 antagonist effect (inhibition of CRFR1 cAMP signaling upon CRF binding); format: cell-based; design: expressed in transfected cells; host or cells: COS-M6 (transiently transfected)
[4] = system: "Goldstein" (GS) prnp-huAPPwt-YFP mouse model; assay: Novel Object Recognition (NOR) in corticosterone (CTS)-treated GS mice; format: in vivo; conditions: T41 30 mkd oral 1 hour before CTS 30 mkd SQ, 21 days
Excerpt: (§1) The purpose of this study was to determine behavioral and biochemical effects of T41 (shown below and in FIG. 2) and its ability to prevent corticosterone (CTS)-induced increases in ptau in the “Goldstein” (GS) prnp-huAPPwt-YFP mouse model. Corticosterone is known to increase CRF, which then should bind the receptor and trigger increases in ptau with chronic CTS injection. Biochemistry included total tau, ptau, and sAPPα from combined entorhinal cortex and hippocampus. Levels of sAPPβ, βCTF, and […] and -42 are believed to be too low to detect in this model.

ptau and total tau = assay: In vivo ptau, total tau and ptau/tau ratio, combined entorhinal cortex and hippocampus, CTS-treated GS mice; design: species or system mouse; conditions: T41 30 mkd oral + CTS, 21 days
[5] = In vivo pharmacokinetics, plasma and brain levels; conditions: adult mice
Method: FIG. 10 illustrates in vivo pharmacokinetics for T41. As shown in the top panel, after oral or subcutaneous (SQ) dosing of adult mice at 10 or 30 mg/kg. and collection of plasma and brain at 1, 2, 4, and 8 hours, the brain/plasma ratio was ˜3:2 for 30 mg/kg oral dosing and ˜2:1 for 30 mg/kg SQ injection. […] After oral dosing at 30 mg/kg, brain levels peaked at 1 hour at 328 ng/g.

[6] = system: tau and ptau in SH-SY5Y cells with CRF challenge; assay: CRF challenge assay, tau and p-tau in SH-SY5Y cells; format: cell-based, Human; conditions: for ptau/tau ratio: 1 μM compound, three days
Method: […] On the next day, cells were treated with 100 nM CRF for 3 days. Next, cells were lysed with RIPA buffer complemented with Halt Cocktail Inhibitors, and freeze/thaw 3 times. […] Significance was not seen without CRF due to low N#, but is highly significant with CRF.

human sAPPα = assay: In vivo sAPPα, CTS-treated GS mice; design: species or system mouse; conditions: T41 30 mkd oral + CTS, 21 days
Excerpt: as §1
The assay used to detect sAPPα recognizes human sAPPα, therefore the signal is expected to be undetectable in NTg mice. There was little or no difference between GS Veh and GS CTS mice (FIG. 13). […] Increases in sAPPα are correlated with improvement in cognition.

[7] = system: tau and ptau in SH-SY5Y cells; assay: tau and p-tau levels in SH-SY5Y cells after compound treatment (AlphaLISA); format: cell-based, Human; conditions: 1 μM compound, 24 hours, no CRF
Method: Human neuroblastoma SH-SY5Y cells were treated for 24 hours with 1 μM compound, and then tau and ptau levels were determined from cell lysates using AlphaLISA (FIG. 7A). T41, as well as J32. […] Antalarmin (Ant), a known CRF1 antagonist, was used as a control.

[8] = hippocampus and entorhinal cortex
[9] = 1 μM compound and 100 nM CRF, 24 hours

PAMPA KIAM [1]: 5.79
Kd (CRFR1 [2]): > 100 nM
Compound: CCC(COC)Nc1nc(C)nc(Oc2ccc(Cl)cc2C)c1C (stereo not shown) [Compound T37, 6-(4-chloro-2-methylphenoxy)-N-(1-methoxybutan-2-yl)-2,5-dimethylpyrimidin-4-amine]

Kd (CRFR1 [2]): 1000 nM
Compound: CCC(COC)Oc1nc(C)nc(Nc2ncc(C)cc2C)c1C (stereo not shown) [Compound T51]

Kd (CRFR1 [2]): 40 nM
Compound: CCC(COC)Oc1nc(C)nc(Nc2c(C)cc(F)cc2C)c1C (stereo not shown) [Compound T49]

PAMPA KIAM [1]: 2.02
EC50 (CRFR1 [3]; values given in μM): > 2 µM
Kd (CRFR1 [2]): ~30 nM
Compound: CCC(COC)Oc1nc(C)nc(Nc2ccc(OC)cc2C)c1C (stereo not shown) [Compound T38, N-(4-methoxy-2-methylphenyl)-6-((1-methoxybutan-2-yl)oxy)-2,5-dimethylpyrimidin-4-amine]

PAMPA KIAM [1]: 3.27
Compound: CCC(COC)Oc1nc(C)nc(Nc2ccc(F)cc2C)c1C (stereo not shown) [Compound T48]

PAMPA KIAM [1]: 2.00
Kd (CRFR1 [2]): > 100 nM
Compound: CCC(COC)Oc1nc(C)nc(Nc2c(F)cc(F)cc2F)c1C (stereo not shown) [Compound T47]

CRF1 (agonist radioligand) Kd/(nM) (CRFR1 [2]): DEAD
Compound: CCC(COC)Oc1nc(C)nc(Nc2cnn(C)c2C)c1C (stereo not shown) [Compound T53]

PAMPA KIAM [1]: 3.32
Kd (CRFR1 [2]): > 100 nM
Compound: CCC(COC)Oc1nc(C)nc(Nc2ccc(F)cc2F)c1C (stereo not shown) [Compound T45]

PAMPA KIAM [1]: 4.01
peak brain level ([5]; oral dosing at 30 mg/kg): 328 ng/g
time of peak brain level ([5]; oral dosing at 30 mg/kg): 1 h
Ki (CRFR1 [3]; CRFR1 cAMP signaling upon CRF binding): 400 nM
inhibition at 1 µM (CRFR1 [3]; at 1 μM, upon CRF binding): 70%
EC50 (CRFR1 [3]; values in nM): 0.4 µM
Kd (CRFR1 [2]): ~15 nM and 15 nM
Compound: CCC(COC)Oc1nc(C)nc(Nc2c(C)cc(C)cc2C)c1C (stereo not shown) [Compound T41]
novelty preference (NOR), post-study [4]: promising trend toward some increased novelty preference
ptau (ptau and total tau; [8]): no significant difference
total tau (ptau and total tau; [8]): overall had the highest value
ptau/tau ratio (ptau and total tau; versus CTS alone): T41 pre-treatment to prevent that increase
brain levels, comparison of doses and routes ([5]; 10 or 30 mg/kg, oral or SQ): higher at 30 than 10 mg/kg and higher with SQ injection than oral delivery
p-tau [6, 9]: lowers p-tau with high significance
p-tau/tau ratio [6, 9]: significant lowering
tau [6, 9]: does not lower tau
ptau/tau ratio ([6]; with 100 nM CRF): lowers the ptau/tau ratio
ptau/tau ratio ([6]; without CRF): lowers the ptau/tau ratio
sAPPα (human sAPPα): trend toward an increase in sAPPα in T41-treated mice that was not statistically significant
p-tau [7]: slightly decreased
p-tau/tau ratio [7]: significantly decreased
total tau [7]: slightly decreased

PAMPA KIAM [1]: 6.34
EC50 (CRFR1 [3]; values given in μM): > 2 µM
Kd (CRFR1 [2]): ~30 nM
Compound: CCC(COC)Nc1nc(C)nc(Oc2c(C)cc(C)cc2C)c1C (stereo not shown) [Compound T33]
p-tau [7]: slightly decreased
total tau [7]: slightly decreased

PAMPA KIAM [1]: 2.90
Kd (CRFR1 [2]): > 100 nM
Compound: CCC(COC)Oc1nc(C)nc(Nc2ccc(F)cc2C(F)(F)F)c1C (stereo not shown) [Compound T46]

PAMPA KIAM [1]: 2.31
Kd (CRFR1 [2]): > 100 nM
Compound: CCC(COC)Nc1nc(C)nc(Oc2ccc(OC)cc2C)c1C (stereo not shown) [Compound T36, 6-(4-methoxy-2-methylphenoxy)-N-(1-methoxybutan-2-yl)-2,5-dimethylpyrimidin-4-amine]

CRF1 (agonist radioligand) Kd/(nM) (CRFR1 [2]): DEAD
Compound: CCC(COC)Oc1nc(C)nc(Nc2ccn(C)n2)c1C (stereo not shown) [Compound T54]

PAMPA KIAM [1]: 4.68
Kd (CRFR1 [2]): > 100 nM
Compound: CCC(COC)Oc1nc(C)nc(OC(CC)COC)c1C (stereo not shown) [Compound T40]

PAMPA KIAM [1]: 6.19
EC50 (CRFR1 [3]; values given in μM): > 10 µM
Kd (CRFR1 [2]): 75 nM
Compound: CCC(COC)Oc1nc(C)nc(Nc2ccc(Cl)cc2C)c1C (stereo not shown) [Compound T39]
p-tau [7]: slightly decreased
p-tau/tau ratio [7]: significantly decreased
total tau [7]: slightly decreased
